Values after ≈ are worked out from the molar mass of the structure shown.
Columns and labels:
[1] = system: Botrytis cinerea; assay: In vitro inhibition assay for volatile fungicide, 12-well plates (Example 7); type: cell-based
Description: For testing activity against fungi pathogens, an in vitro inhibition assay for volatile antimicrobial compounds is developed using 12-Well (7 milliliter (mL) volume per well) microtiter plates. A 3-mL volume of full-strength Potato Dextrose Agar (PDA) is added to each well. After cooling, 1 microliter (μL) of 1×10^6 per mL Botrytis cinerea spore suspension is spot pipetted to the center of the agar. For the first experiment, inoculated plates are allowed to germinate for 5 days at 4° C. For the second experiment, plates are inoculated immediately prior to volatile fungicide treatment. Small Whatman #1 filter disks (Cat. No. 1001-0155) are placed, in duplicate, on the underside of a polyethylene PCR plate sealing film.
The acetone is permitted to evaporate for 5 minutes. The headspace around the Botrytis cinerea inoculum is then sealed inside the well by the film with the adhering disk containing the fungicide. Plates are inverted, placed over the treated disks and sealed to prevent any of the chemical from flaking from the disk and falling onto the inoculated agar. After 14 days of storage at 4° C., cultures are evaluated for percent growth relative to control. […]

[2] = system: Escherichia coli; assay: In vitro volatile inhibition assay against bacteria (Example 8); type: cell-based; design: key: 0 = No colonies; 1 = Micro colonies not connected; 2 = Small colonies with some merging; 3 = Large colonies merging together; details: 5.00 mg per disk
Description: For testing activity against bacteria pathogens, 12-Well (7 mL volume per well) microtiter plates are used for the in vitro inhibition assay for volatile antimicrobial compounds. A 3-mL volume of full-strength LB Agar is added to each well. After cooling, 15 μL of Escherichia coli, adjusted to an optical density of 0.02 to 0.035, and further diluted 1/10 is pipetted to the center of the agar and tilted to distribute uniformly. Small Whatman #1 filter disks (Cat. No. 1001-0155) are placed, in duplicate, on the underside of a polyethylene polymerase chain reaction (PCR) plate sealing film. For determination of the minimum inhibitory concentration (MIC), Compound A is diluted in acetone, and 5 mg of compound is added to the disks. The acetone is permitted to evaporate for 5 minutes. The headspace around the Escherichia coli inoculum is then sealed inside the well by the film with the adhering disk containing the fungicide. Plates are inverted, placed over the treated disks and sealed to prevent any of the chemical from flaking from the disk and falling onto the inoculated agar. After 3 days of storage at 4° C., cultures are transferred to 23° C. for an additional 2 days, and then evaluated for colony growth relative to control.

[3] = system: Escherichia coli; assay: Volatile assay against bacterial pathogens, MBC (Example 12); type: cell-based; details: E. coli; headspace concentration; 48 hours at 23 C
Description: (§1) 12-Well (6.5 mL volume per well) microtiter plates are used for the in vitro inhibition assay for volatile antimicrobial Compound A against additional bacterial pathogens. A 3-mL volume of Nutrient agar is added to each well and allowed to dry before introducing the pathogen. Escherichia coli, Pectobacterium carotovorum, Xanthomonas axonopodis and Salmonella enterica cell suspensions are adjusted to an optical density of 0.2 to 0.35, and further diluted 1/10, and 15 μL is pipetted to the center of each well and tilted to distribute uniformly. A Whatman #1 filter paper (CAT 1001-0155) is placed on the underside of a polyethylene PCR plate sealing film. […] The films with the treated disks are then applied over the inoculated plates and sealed. Plates are inverted, and incubated at 23° C. for 48 hours. After the incubation period, the bacteria colonies are dislodged in sterile water containing tween 80 (0.001%) and the optical density (OD; 600 nm) is determined. Results are summarized in Table 6, where the headspace concentration required to control at least 80% of bacterial growth is reported.

[4] = system: Pectobacterium carotovorum; assay: as above; type: cell-based; details: P. carotovorum; headspace concentration; 48 hours at 23 C
Description: as §1

[5] = system: Salmonella enterica; assay: as above; type: cell-based; details: S. enterica; headspace concentration; 48 hours at 23 C
Description: as §1

[6] = system: Xanthomonas axonopodis; assay: as above; type: cell-based; details: X. axonopodis; headspace concentration; 48 hours at 23 C
Description: as §1

[7] = system: Botrytis cinerea; assay: Volatile release from different materials, MIC (Example 13); type: cell-based
Description: An in vitro assay is used to evaluate the ability of Compound A to volatilize from different materials and control fungal growth. […] A 3-mL volume of full-strength Potato Dextrose Agar (PDA) is added to each well. […] Plates are inoculated immediately prior to volatile fungicide treatment. The various materials are placed, in duplicate, on the underside of a polyethylene PCR plate sealing film. […] The acetone is permitted to evaporate for five minutes. The headspace around the Botrytis cinerea inoculum is then sealed inside the well by the film with the adhering disk of material containing the fungicide. Plates are inverted, placed over the treated disks and sealed to prevent any of the chemical from flaking from the disk and falling onto the inoculated agar. After three days of storage at 23° C., the cultures are evaluated for percent growth relative to control based on measurement of fungal colony diameter.

[8] = system: Penicillium expansum; assay: Blue mold on apple, volatile assay; type: in vivo
Description: Compound A is mixed with acetone and 250 μL of the mixture is pipetted into a small glass tube. […] After incubation, fruits are evaluated by measuring the diameter (mm) of rot development (browning) up to 7 days at 21° C.

[9] = system: Penicillium digitatum; assay: Green mold on orange, volatile assay (Example 25); type: in vivo; details: 50 mg/L, day 3 at 21 C after 5 days at 1 C

## OB1OCc2cc(F)ccc21 [Compound A, 5-fluoro-1,3-dihydro-1-hydroxy-2,1-benzoxaborole]
[1]; 0.0006 mg per disk
  Botrytis inhibition % (in vitro): 46%
[1]; 0.001 mg per disk
  Botrytis inhibition % (in vitro): 69%
[1]; 0.0024 mg per disk
  Botrytis inhibition % (in vitro): 85%
[1]; 0.005 mg per disk
  Botrytis inhibition % (in vitro): 100%
[1]; 0.01 mg per disk
  Botrytis inhibition % (in vitro): 100%
[1]; 0.023 mg per disk
  Botrytis inhibition % (in vitro): 100%
[1]; 0.04 mg per disk
  Botrytis inhibition % (in vitro): 100%
[1]; 0.08 mg per disk
  Botrytis inhibition % (in vitro): 100%
[1]; 0.16 mg per disk
  Botrytis inhibition % (in vitro): 100%
[1]; 0.31 mg per disk
  Botrytis inhibition % (in vitro): 100%
[1]; 0.63 mg per disk
  Botrytis inhibition % (in vitro): 100%
[1]; 1.25 mg per disk
  Botrytis inhibition % (in vitro): 100%
[1]; volatile, 14 days at 4 C
  Rate giving 100% in vitro inhibition of Botrytis cinerea: 0.005 mg/disk
[2]
  Colony Rating: 1
[3]
  Rate (mg/L) offering at least 80% control: 35.7 mg/L
[4]
  Rate (mg/L) offering at least 80% control: 2.2 mg/L
[5]
  Rate (mg/L) offering at least 80% control: 17.9 mg/L
[6]
  Rate (mg/L) offering at least 80% control: 4.5 mg/L
[7]; volatile release from Acrylic-Coated Fiberglass
  MIC: 0.56 µg/mL (≈ 3.69 µM)
[7]; volatile release from Aramid
  MIC: 2.2 µg/mL (≈ 14.5 µM)
[7]; volatile release from Aramid and Fiberglass
  MIC: 0.56 µg/mL (≈ 3.69 µM)
[7]; volatile release from Cardboard
  MIC: 2.2 µg/mL (≈ 14.5 µM)
[7]; volatile release from Cellulose
  MIC: 0.56 µg/mL (≈ 3.69 µM)
[7]; volatile release from Fiberglass
  MIC: 0.56 µg/mL (≈ 3.69 µM)
[7]; volatile release from PTFE
  MIC: 1.1 µg/mL (≈ 7.24 µM)
[7]; volatile release from PTFE-Coated Fiberglass
  MIC: 0.56 µg/mL (≈ 3.69 µM)
[7]; volatile release from Polyethylene PCR Film
  MIC: 0.28 µg/mL (≈ 1.84 µM)
[7]; volatile release from Silica
  MIC: 0.56 µg/mL (≈ 3.69 µM)
[7]; volatile release from Silicone-Coated Fiberglass
  MIC: 0.56 µg/mL (≈ 3.69 µM)
[7]; volatile release from Vinyl-Coated Polyester
  MIC: 0.56 µg/mL (≈ 3.69 µM)
[8]; 0.02 mg/L, Day 0
  Browning Rot (diameter; mm): 0.0 mm
[8]; 0.02 mg/L, Day 2
  Browning Rot (diameter; mm): 0.9 mm
[8]; 0.02 mg/L, Day 4
  Browning Rot (diameter; mm): 2.8 mm
[8]; 0.02 mg/L, Day 7
  Browning Rot (diameter; mm): 6.9 mm
[8]; 0.1 mg/L, Day 0
  Browning Rot (diameter; mm): 0.0 mm
[8]; 0.1 mg/L, Day 2
  Browning Rot (diameter; mm): 0.0 mm
[8]; 0.1 mg/L, Day 4
  Browning Rot (diameter; mm): 0.3 mm
[8]; 0.1 mg/L, Day 7
  Browning Rot (diameter; mm): 2.0 mm
[8]; 0.5 mg/L, Day 0
  Browning Rot (diameter; mm): 0.0 mm
[8]; 0.5 mg/L, Day 2
  Browning Rot (diameter; mm): 0.0 mm
[8]; 0.5 mg/L, Day 4
  Browning Rot (diameter; mm): 0.0 mm
[8]; 0.5 mg/L, Day 7
  Browning Rot (diameter; mm): 0.4 mm
[8]; 2.5 mg/L, Day 0
  Browning Rot (diameter; mm): 0.0 mm
[8]; 2.5 mg/L, Day 2
  Browning Rot (diameter; mm): 0.0 mm
[8]; 2.5 mg/L, Day 4
  Browning Rot (diameter; mm): 0.0 mm
[8]; 2.5 mg/L, Day 7
  Browning Rot (diameter; mm): 0.0 mm
[9]
  Orange Sporulation (mm): 0.0 mm

From US12329158B2, “Large-scale methods of uniformly coating packaging surfaces with a volatile antimicrobial to preserve food freshness” (AGROFRESH INC., priority 2013, dated 2025)
